Reference: article PMC5674511, “Increase of enzyme activity through specific covalent modification with fragments” (Chemical Science, 2017)

Legend:
BtGH84 [1] = target: T1, BtGH84 (Bacteroides thetaiotaomicron, UniProt Q89ZI2); test: binding constant; method not stated in main text; conditions: read-out: BtGH84 / None
T1 construct: gene BT_4395; recombinant purified enzyme
T1 sequence (Q89ZI2 22-737): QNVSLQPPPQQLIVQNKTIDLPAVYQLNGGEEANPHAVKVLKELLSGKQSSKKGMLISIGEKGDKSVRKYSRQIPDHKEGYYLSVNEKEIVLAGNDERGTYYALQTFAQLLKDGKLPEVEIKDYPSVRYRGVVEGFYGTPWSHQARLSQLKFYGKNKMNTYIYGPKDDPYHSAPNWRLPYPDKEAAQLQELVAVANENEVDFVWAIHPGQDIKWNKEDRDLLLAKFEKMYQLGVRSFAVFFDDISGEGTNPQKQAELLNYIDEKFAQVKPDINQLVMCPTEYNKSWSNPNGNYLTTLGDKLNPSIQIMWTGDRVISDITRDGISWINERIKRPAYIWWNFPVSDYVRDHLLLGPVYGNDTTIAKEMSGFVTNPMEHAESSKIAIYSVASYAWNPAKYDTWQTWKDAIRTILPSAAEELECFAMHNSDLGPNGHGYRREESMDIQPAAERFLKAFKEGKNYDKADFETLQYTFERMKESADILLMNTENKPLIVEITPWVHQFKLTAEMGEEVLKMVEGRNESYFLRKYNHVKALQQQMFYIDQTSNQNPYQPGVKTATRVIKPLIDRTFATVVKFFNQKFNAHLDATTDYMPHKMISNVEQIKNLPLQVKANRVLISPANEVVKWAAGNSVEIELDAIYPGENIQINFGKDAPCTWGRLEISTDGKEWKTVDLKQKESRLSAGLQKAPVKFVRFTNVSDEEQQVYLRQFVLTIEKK
Description: (§1) binding constant; method not stated in main text on BtGH84

BtGH84 [2] = target: T2, BtGH84 (Bacteroides thetaiotaomicron, UniProt Q89ZI2, C441S/C675S/Y571C); test: binding constant; method not stated in main text; conditions: read-out: BtGH84_TM / None
T2 construct: gene BT_4395; recombinant purified enzyme
T2 sequence (Q89ZI2 22-737 C441S/Y571C/C675S): T1 sequence (Q89ZI2 22-737)
Description: as §1

## CCNC1=N[C@@H]2[C@@H](O)[C@H](O)[C@@H](CO)O[C@@H]2S1 [compound 2, thiamet-G]
BtGH84 [1]
  Kd: 50 nM
BtGH84 [2]
  Kd: 52 ± 5.7 nM
